According to article PMC2759945, “Cellular transport of anti-inflammatory pro-drugs originated from a herbal formulation of Zingiber cassumunar and Nigella sativa” (Chinese Medicine, 2009):
≈ marks a conversion by molar mass, not a printed value.

Assays:
[1] = tested on: Mycobacterium tuberculosis H37Ra; design: method as in PMID 17691048; conditions: cited from earlier work
[2] = Transport across Caco-2 cell monolayers, apical to basolateral; type: in vitro ADME, human; conditions: human, Caco-2, pH 7.4; for Papp at 100 min, 53 μM: read-out: apparent permeability coefficient Papp at 53 μM; for Papp at 100 min, 106 μM: read-out: apparent permeability coefficient Papp at 106 μM
Protocol: (§1) Caco-2 cells were maintained in a DMEM at pH7.4, supplemented with 10% fetal bovine serum, 2 mM L-glutamine, 1% non-essential amino acid solution and 0.1% penicillin-streptomycin solution in a humidified atmosphere (5% CO2, 95% air, at 37°C). Cells were grown until 60-70% confluence. Cells from passages 20-40 were used for all experiments. Cells were seeded on tissue culture polycarbonate membrane filters (pore size: 3.0 μm) in 6-well Transwell plates (Corning, USA) at a seeding density of 2 × 10^4cells/cm^2. Culture medium was added to both the donor and the acceptor compartments. Medium was changed every two days. Cells were left to differentiate for 15-21 days after seeding with monitoring of trans-epithelial electrical resistance (TEER) values with a Millicell electrical resistance system (Millipore, USA) and the value should be higher than 600Ω.cm^2.
(§2) Transport experiment across the Caco-2 cell monolayers at pH7.4 was performed. Caco-2 cell monolayers in Transwell (6-well) plates were used for transport studies when they were differentiated and the monolayer was intact, as checked by measuring TEER. Prior to the experiment, the cells were washed twice with phosphate buffered saline (PBS) and pre-equilibrated for one hour with HBSS buffered with 30 mM n-(2-hydroxyethyl) piperazine-n-(2-ethanosulfonic acid) (HEPES) at pH7.4. After medium was removed, the cells were treated with sample solutions (concentrations of 53 μM and 106 μM in HBSS at pH7.4) in an apical compartment. Samples (1 mL) were taken under sink conditions at 0, 5, 20, 40, 60, 80 and 100 minutes from the basolateral side and replaced with an equal volume of fresh HBSS solution. The amount of the compounds from the basolateral side was determined on a UV-spectrophotometer (Thermo Scientific, USA) at 228 nm. Results were expressed as cumulative transport as a function of time. Apparent permeability coefficient was calculated according to the following equation: […]
(§3) where Papp is the apparent permeability coefficient (cm/s), dQ/dt (μg/s) is the rate of appearance of sample on the basolateral side, A is the surface area of the monolayer (cm^2) and C0 (μg/mL) is the initial drug concentration in the donor compartment. All rate constants were obtained from the permeation profiles of each compound. Statistical significance was evaluated with one-way analysis of variance (one-way ANOVA). A value of P < 0.05 was considered statistically significant.

[3] = tested on: Caco-2 cell monolayers; experiment: as above; type: in vitro ADME, human; conditions: for Papp at 53 μM / Papp at 106 μM: apical to basolateral, pH7.4, mean (SD), n = 3
Protocol: as §1, §2, §3

[4] = Chemical hydrolysis in transport medium (HBSS); type: physicochemical; conditions: 53 μM and 106 μM in transport medium (HBSS pH7.4), stored at 4°C for 96 hours
Protocol: Solution of compound 1, 2 and 3 at 53 μM and 106 μM were prepared in Hank's balanced salt solution (HBSS) at pH7.4. All solutions were kept at 4°C for 96 hours and each solution was then analyzed by HPLC at 12, 24, 48, 72 and 96 hours to determine the hydrolysis product.

[5] = tested on: porcine liver esterase; experiment: Enzyme hydrolysis by porcine liver esterase, monitored by HPLC; type: in vitro ADME; conditions: 10 μM, 37°C
Protocol: Compound 1 (2 mL, 10 μM solution) was pre-incubated at 37°C and 200 μL of esterase enzyme (porcrine liver, 750 units) was added. Samples (200 μL each) were taken at 5, 10, 20, 30 and 60 minutes and added to 200 μL of methanol. Mixtures were vortexed to stop enzymatic activity. Samples were then centrifuged for five minutes at 14,000 × g (Lab Essentials, USA). Supernatant was injected to the HPLC system for the determination of ester pro-drugs and compound D. This procedure was repeated for compounds 2 and 3.

[6] = design: method as in PMID 17691048; conditions: human vero cell line, cited from earlier work
[7] = tested on: herpes simplex virus (HSV-1); design: method as in PMID 17691048; conditions: vero cell line; cited from earlier work
[8] = tested on: carrageenan-induced rat paw edema; design: method as in doi:10.1055/s-2006-961309; conditions: compound D from a hexane extract of Z. cassumunar; cited from earlier work
[9] = tested on: uterus of non-pregnant rat; design: method as in PMID 3671553; conditions: cited from earlier work
[10] = apical to basolateral direction

Compound: CCCCC/C=C\C/C=C\CCCCCCCC(=O)OCC/C=C/c1ccc(OC)c(OC)c1 [Compound 1, (E)-4-(3,4-dimethoxyphenyl)but-3-en-1-yl linoleate]
- Minimal inhibitory concentration [1]: 200 µg/mL (≈ 425 µM)
- Papp at 100 min, 53 μM [2]: 13.9 ×10⁻⁶ cm/s
- Papp at 100 min, 106 μM [2]: 14.3 ×10⁻⁶ cm/s
- hydrolysis during the transport across Caco-2 cell monolayers [3]: did not occur
- cumulative transport at 53 μM ([3]; 53 μM, apical to basolateral direction): highest cumulative transport
- Papp at 53 μM ([3]; 53 μM): 13.94 (0.60) 10^-6cm/s
- cumulative transport at 106 μM [3, 10]: higher cumulative transport over other two fatty acid ester
- Papp at 106 μM [3]: 14.33 (0.17) 10^-6cm/s
- time after which hydrolysis product compound D was detected by HPLC [4]: 24 h
- time in which the ester hydrolysis was completed [5]: ≤ 10 min

Compound: CCCCCCCC/C=C\CCCCCCCC(=O)OCC/C=C/c1ccc(OC)c(OC)c1 [Compound 2, (E)-4-(3,4-dimethoxyphenyl)but-3-en-1-yl oleate]
- Minimal inhibitory concentration [1]: 100 µg/mL (≈ 212 µM)
- Papp at 100 min, 53 μM [2]: 9.45 ×10⁻⁶ cm/s
- Papp at 100 min, 106 μM [2]: 10.1 ×10⁻⁶ cm/s
- hydrolysis during the transport across Caco-2 cell monolayers [3]: did not occur
- Papp at 53 μM ([3]; 53 μM): 9.45 (0.29) 10^-6cm/s
- Papp at 106 μM [3]: 10.08 (0.32) 10^-6cm/s
- cytotoxicity ([6]; at anti-HSV-1 IC50): without cytotoxicity
- time after which hydrolysis product compound D was detected by HPLC [4]: 24 h
- time in which the ester hydrolysis was completed [5]: ≤ 10 min
- anti-HSV-1 IC50 [7]: 42.6 µg/mL

Compound: CCCCCCCCCCCCCCCC(=O)OCC/C=C/c1ccc(OC)c(OC)c1 [Compound 3, (E)-4-(3,4-dimethoxyphenyl)but-3-en-1-yl palmitate]
- Minimal inhibitory concentration [1]: 200 µg/mL (≈ 448 µM)
- Papp at 100 min, 53 μM [2]: 7.48 ×10⁻⁶ cm/s
- Papp at 100 min, 106 μM [2]: 8.6 ×10⁻⁶ cm/s
- hydrolysis during the transport across Caco-2 cell monolayers [3]: did not occur
- Papp at 53 μM ([3]; 53 μM): 7.48 (0.31)** 10^-6cm/s
- Papp at 106 μM [3]: 8.60 (0.55)** 10^-6cm/s
- cytotoxicity IC50 [6]: 38 µg/mL
- time after which hydrolysis product compound D was detected by HPLC [4]: 24 h
- time in which the ester hydrolysis was completed [5]: ≤ 10 min

Compound: COc1ccc(/C=C/CCO)cc1OC [Compound D, (E)-4-(3,4-dimethoxyphenyl)but-3-en-1-ol]
- Papp at 100 min, 53 μM [2]: 8.53 ×10⁻⁶ cm/s
- Papp at 100 min, 106 μM [2]: 16.4 ×10⁻⁶ cm/s
- Papp at 53 μM ([3]; 53 μM): 8.53 (0.83)** 10^-6cm/s
- cumulative transport at 106 μM [3, 10]: cumulative transport close to compound 3
- Papp at 106 μM [3]: 16.38 (0.61)** 10^-6cm/s
- effect on edema formation [8]: potent inhibitory effect on edema formation
- uterine relaxant effect [9]: dose dependent uterine relaxant effect
